Results published in US20170066717A1, “NEW PHENYLAZETIDINECARBOXYLATE OR -CARBOXAMIDE COMPOUNDS” (INVENTIVA, priority 2014, published 2017).
pEC50: −log10 of the molar value.

How the values were obtained:
NURR-1/RXRγ = molecular target: T1, NURR-1/RXRγ (Homo sapiens, UniProt P48443); test: Transactivation test, NURR-1-Gal4/RXRγ, luciferase reporter in Cos-7 cells; format: cell-based; settings: for Emax: COS-7, induction level relative to reference XCT0135908 at 2×10^−5 M (=100%), read-out: hNurr1_RXRgFL Emax (%); for pEC50: Cos-7 cells, NURR-1-Gal4/RXRγ, luciferase reporter, read-out: hNurr1_RXRgFL EC50
T1 construct: expressed in transfected cells; host or cells: Cos-7 cells
Description: (§1) The ability of the compounds according to the invention to behave as an activator of the heterodimers formed by the NURR-1 nuclear receptor and the RXR nuclear receptors was measured by means of an in vitro test. A transactivation test was used as primary selection (screening) test. Cos-7 cells were cotransfected with a plasmid expressing a chimera of the human NURR-1-Gal4 receptor, a plasmid expressing the human RXR receptor (RXRα or RXRγ receptor) and a 5Gal4pGL3-TK-Luc reporter plasmid. The transfctions were carried out using a chemical agent (Jet PEI). The transfected cells were distributed into 384-well plates and left to stand for 21 hours. At time 24 hours the culture medium was changed. The test products were added (final concentration of between 10^''4 and 3×10^-10 M) to the culture medium. After incubation overnight, the lucifeiase expression was measured after addition of SteadyGlo according to the instructions of the manufacturer (Promega). […] The induction levels (Emax) were calculated relative to the basal activity of each heterodimer.

NURR-1/RXRα = molecular target: T2, NURR-1/RXRα (Homo sapiens, UniProt P19793); test: Transactivation test, NURR-1-Gal4/RXRα, luciferase reporter in Cos-7 cells; format: cell-based; settings: for Emax: COS-7, induction level relative to reference XCT0135908 at 2×10^−5 M (=100%), read-out: hNurr1_RXRaFL Emax (%); for pEC50: Cos-7 cells, NURR-1-Gal4/RXRα, luciferase reporter, read-out: hNurr1_RXRaFL EC50
T2 construct: expressed in transfected cells; host or cells: Cos-7 cells
Description: as §1

T2 sequence (P19793 whole entry, the tested form may be a part): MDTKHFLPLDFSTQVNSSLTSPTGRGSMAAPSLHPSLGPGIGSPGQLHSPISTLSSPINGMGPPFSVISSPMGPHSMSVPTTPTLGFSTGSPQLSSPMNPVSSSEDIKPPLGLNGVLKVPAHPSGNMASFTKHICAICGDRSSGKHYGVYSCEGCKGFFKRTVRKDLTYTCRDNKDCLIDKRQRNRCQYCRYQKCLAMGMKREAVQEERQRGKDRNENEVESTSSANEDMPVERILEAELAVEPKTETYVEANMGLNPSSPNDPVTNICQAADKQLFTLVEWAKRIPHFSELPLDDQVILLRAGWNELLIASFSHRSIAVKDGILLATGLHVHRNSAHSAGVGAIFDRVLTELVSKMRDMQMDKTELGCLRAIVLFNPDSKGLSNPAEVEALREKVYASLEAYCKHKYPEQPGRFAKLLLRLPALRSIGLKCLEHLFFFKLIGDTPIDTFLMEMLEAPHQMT
T2 sequence (P43354 whole entry partner, the tested form may be a part): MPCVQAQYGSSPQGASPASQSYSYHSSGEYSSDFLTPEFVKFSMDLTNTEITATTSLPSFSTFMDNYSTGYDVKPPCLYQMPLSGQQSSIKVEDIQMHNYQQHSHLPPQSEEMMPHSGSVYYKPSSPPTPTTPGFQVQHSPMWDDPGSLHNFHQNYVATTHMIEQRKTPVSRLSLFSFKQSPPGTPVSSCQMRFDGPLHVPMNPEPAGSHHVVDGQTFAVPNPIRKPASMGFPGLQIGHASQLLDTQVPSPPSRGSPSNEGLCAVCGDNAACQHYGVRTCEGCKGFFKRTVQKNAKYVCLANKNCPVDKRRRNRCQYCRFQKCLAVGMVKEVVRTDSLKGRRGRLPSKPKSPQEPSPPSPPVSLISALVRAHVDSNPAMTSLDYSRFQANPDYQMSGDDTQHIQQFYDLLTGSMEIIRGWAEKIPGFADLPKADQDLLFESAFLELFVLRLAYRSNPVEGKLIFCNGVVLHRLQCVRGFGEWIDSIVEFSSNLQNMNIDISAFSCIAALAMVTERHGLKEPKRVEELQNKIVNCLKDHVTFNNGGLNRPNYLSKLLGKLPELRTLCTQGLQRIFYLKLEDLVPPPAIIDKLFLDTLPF
T2 sequence (P04386 1-147 partner limits assumed): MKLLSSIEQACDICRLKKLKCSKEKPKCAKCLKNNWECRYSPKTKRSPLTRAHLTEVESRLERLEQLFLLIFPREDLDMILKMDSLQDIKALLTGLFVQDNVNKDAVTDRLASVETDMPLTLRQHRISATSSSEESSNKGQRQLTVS
T1 sequence (P48443 whole entry, the tested form may be a part): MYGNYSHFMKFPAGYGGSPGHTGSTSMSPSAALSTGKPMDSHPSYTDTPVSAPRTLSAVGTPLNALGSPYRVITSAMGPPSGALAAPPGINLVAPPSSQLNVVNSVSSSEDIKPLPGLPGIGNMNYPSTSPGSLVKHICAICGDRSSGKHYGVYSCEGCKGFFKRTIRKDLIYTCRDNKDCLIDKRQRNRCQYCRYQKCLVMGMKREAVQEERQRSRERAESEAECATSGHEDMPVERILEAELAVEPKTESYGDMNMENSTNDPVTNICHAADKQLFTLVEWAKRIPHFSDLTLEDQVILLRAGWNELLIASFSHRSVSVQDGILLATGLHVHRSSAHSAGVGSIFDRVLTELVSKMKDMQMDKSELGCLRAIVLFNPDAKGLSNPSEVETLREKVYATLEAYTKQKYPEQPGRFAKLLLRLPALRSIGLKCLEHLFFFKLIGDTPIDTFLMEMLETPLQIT
T1 sequence (P43354 whole entry partner, the tested form may be a part): as the sequence (P43354 whole entry partner, the tested form may be a part) above
T1 sequence (P04386 1-147 partner limits assumed): as the sequence (P04386 1-147 partner limits assumed) above

Compound | Emax (NURR-1/RXRγ) | pEC50 (NURR-1/RXRγ) | Emax (NURR-1/RXRα) | pEC50 (NURR-1/RXRα)
Cc1cc(-c2cccc(C(C)(C)O)c2)cc(N2CC(C(=O)O)C2)c1 [Example 20, 1-[3-[3-(1-hydroxy-1-methylethyl)phenyl]-5-methylphenyl]azetidine-3-carboxylic acid] | 69% | < 5.30 | 87% | 5.68
Cc1cc(-c2cc(C(F)(F)F)nc3ccccc23)cc(N2CC(C(=O)O)C2)c1 [Example 21, 1-[3-methyl-5-[2-(trifluoromethyl)-4-quinolyl]phenyl]azetidine-3-carboxylic acid] | 101% | 8.40 | 102% | 7.89
Cc1cc(-c2cccc(C(F)(F)F)c2F)cc(N2CC(C(=O)O)C2)c1 [Example 23, 1-[3-[2-fluoro-3-(trifluoromethyl)phenyl]-5-methylphenyl]azetidine-3-carboxylic acid] | 107% | 7.52 | 111% | 7.89
Cc1cc(-c2cc(C(F)(F)F)ccc2Cl)cc(N2CC(C(=O)O)C2)c1 [Example 24, 1-[3-[2-chloro-5-(trifluoromethyl)phenyl]-5-methylphenyl]azetidine-3-carboxylic acid] | 104% | 7.89 | 114% | 8.52
Cc1cc(-c2cccc3c2OC(F)(F)O3)cc(N2CC(C(=O)O)C2)c1 [Example 25, 1-[3-(2,2-difluoro-1,3-benzodioxal-4-yl)-5-methylphenyl]azetidine-3-carboxylic acid] | 109% | 7.30 | 99% | 7.72
Cc1cc(-c2cccc(N(C)C)c2)cc(N2CC(C(=O)O)C2)c1 [Example 26, 1-[3-[3-(dimethylamino)phenyl]-5-methylphenyl]azetidine-3-carboxylic acid] | 116% | 6.50 | 108% | 6.91
Cc1cc(-c2cccc(Cl)c2)cc(N2CC(C(=O)O)C2)c1 [Example 27, 1-[3-[3-chlorophenyl]-5-methylpehnyl]azetidine-3-carboxylic acid] | 114% | 6.63 | 119% | 6.78
Cn1cc(-c2cc(N3CC(C(=O)O)C3)cc(C(F)(F)F)c2)c2ccc(C(F)(F)F)cc21 [Example 28, 1-[3-[1-methyl-6-(trifluoromethyl)indol-3-yl]-5-(trifluoromethyl)phenyl]azetidine-3-carboxylic acid] | 58% | 7.15 | 76% | 7.35
Cn1cc(-c2cc(Cl)cc(N3CC(C(=O)O)C3)c2)c2ccc(C(F)(F)F)cc21 [Example 29] | 85% |  | 78% | 
Cn1cc(-c2cccc(N3CC(C(=O)O)C3)c2)c2ccc(C(F)(F)F)cc21 [Example 30, 1-[3-[1-methyl-6-(trifluoromethyl)indol-3-yl]phenyl]azetidine-3-carboxylic acid] | 97% | 7.38 | 102% | 7.85
CC(C)(C)c1cccc(-c2cccc(N3CC(C(=O)O)C3)c2)n1 [Example 31, 2-tert-butyl-6-[3-(3-carboxyazetidine-1-yl)phenyl]pyridiuium chlrodie] | 59% | 6.40 | 62% | 6.82
O=C(O)C1CN(c2cccc(-c3ccnc(C(F)(F)F)c3)c2)C1 [Example 32, 1-[3-[2-(trifluoromethyl)-4-pyridyl]phenyl]azetidine-3-carboxylic acid] | 62% | < 5.30 | 71% | < 5.30
Cc1nc(-c2ccccc2)oc1-c1cccc(N2CC(C(=O)O)C2)c1 [Example 33, 1-[3-(4-methyl-2-phenyl-oxazol-5-yl)phenyl]azetidine-3-carboxylic acid] | 71% | < 5.30 | 119% | < 5.30
